Experimental data reported in patent publication US8784782B2 (Senomyx, Inc., priority 2005, dated 2014).
Read-outs that look alike come from different tables or passages of the source.

Assays:
[1] = molecular target: T1, hT1R1/hT1R3 umami receptor expressed in an HEK293 cell line (Homo sapiens, UniProt Q7RTX0+Q7RTX1); experiment: In vitro hT1R1/hT1R3 umami taste receptor activation assay (FLIPR, dose response); assay type: cell-based
T1 construct: expressed in transfected cells; host or cells: HEK293 cell line derivative, hT1R1/hT1R3-HEK293-Gα15, clone I-17, mifepristone-induced
T1 sequence (Q7RTX1 21-841): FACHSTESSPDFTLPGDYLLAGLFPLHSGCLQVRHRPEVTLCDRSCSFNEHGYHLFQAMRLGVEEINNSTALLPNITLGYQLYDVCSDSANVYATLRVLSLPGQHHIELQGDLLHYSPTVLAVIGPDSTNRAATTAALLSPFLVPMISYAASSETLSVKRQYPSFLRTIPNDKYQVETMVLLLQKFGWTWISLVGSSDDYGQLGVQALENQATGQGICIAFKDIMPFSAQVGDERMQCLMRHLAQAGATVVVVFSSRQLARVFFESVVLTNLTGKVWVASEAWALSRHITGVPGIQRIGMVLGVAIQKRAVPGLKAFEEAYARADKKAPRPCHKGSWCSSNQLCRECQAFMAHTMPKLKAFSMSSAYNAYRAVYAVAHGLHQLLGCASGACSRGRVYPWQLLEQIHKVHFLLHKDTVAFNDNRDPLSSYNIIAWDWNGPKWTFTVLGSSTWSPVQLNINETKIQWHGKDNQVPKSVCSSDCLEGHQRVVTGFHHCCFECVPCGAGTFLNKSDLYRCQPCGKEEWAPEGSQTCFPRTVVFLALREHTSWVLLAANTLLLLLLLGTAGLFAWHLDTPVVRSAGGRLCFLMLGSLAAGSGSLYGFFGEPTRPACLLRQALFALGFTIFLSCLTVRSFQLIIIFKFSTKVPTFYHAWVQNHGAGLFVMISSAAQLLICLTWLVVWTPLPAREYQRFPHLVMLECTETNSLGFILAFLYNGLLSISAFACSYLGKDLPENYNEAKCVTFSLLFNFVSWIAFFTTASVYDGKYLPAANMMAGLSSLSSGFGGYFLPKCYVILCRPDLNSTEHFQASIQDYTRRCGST
T1 sequence (Q7RTX0 21-852): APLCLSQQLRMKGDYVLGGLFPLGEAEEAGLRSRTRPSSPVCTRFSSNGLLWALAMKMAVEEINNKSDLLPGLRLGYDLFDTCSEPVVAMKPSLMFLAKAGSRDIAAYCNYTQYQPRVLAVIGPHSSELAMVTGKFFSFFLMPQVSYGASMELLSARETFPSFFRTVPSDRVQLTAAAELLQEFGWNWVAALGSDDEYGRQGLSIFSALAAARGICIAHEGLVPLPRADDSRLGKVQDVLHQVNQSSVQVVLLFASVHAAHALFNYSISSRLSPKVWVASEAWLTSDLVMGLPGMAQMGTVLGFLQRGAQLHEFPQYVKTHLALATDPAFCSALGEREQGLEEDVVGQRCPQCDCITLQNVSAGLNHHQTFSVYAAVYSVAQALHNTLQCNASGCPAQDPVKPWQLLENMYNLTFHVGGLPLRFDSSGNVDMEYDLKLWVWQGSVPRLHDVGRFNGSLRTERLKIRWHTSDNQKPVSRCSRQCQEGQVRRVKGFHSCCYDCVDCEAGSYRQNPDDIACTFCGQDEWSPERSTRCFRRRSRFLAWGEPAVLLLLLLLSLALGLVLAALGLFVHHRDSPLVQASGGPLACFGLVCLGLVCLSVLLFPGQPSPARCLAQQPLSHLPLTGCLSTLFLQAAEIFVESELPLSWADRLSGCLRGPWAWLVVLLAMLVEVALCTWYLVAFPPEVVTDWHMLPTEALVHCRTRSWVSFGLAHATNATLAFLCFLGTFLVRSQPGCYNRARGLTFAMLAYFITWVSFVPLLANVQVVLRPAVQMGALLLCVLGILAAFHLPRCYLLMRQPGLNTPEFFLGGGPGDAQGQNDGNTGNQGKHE
Protocol: Activity was determined using an automated fluorometric imaging assay on a FLIPR instrument ([…], Molecular Devices, Sunnyvale, Calif.) (designated FLIPR assay). […] After replacement with 25 μl D-PBS, stimulation was performed in the FLIPR instrument and at room temperature by the addition of 25 μl D-PBS supplemented with different stimuli at concentrations corresponding to twice the desired final level. Receptor activity was quantified by determining the maximal fluorescence increases (using a 480 nm excitation and 535 nm emission) after normalization to basal fluorescence intensity measured before stimulation.
Activities were normalized to the response obtained with 60 mM monosodium glutamate, a concentration that elicits maximum receptor response.

[2] = molecular target: T1, hT1R1/hT1R3 umami receptor expressed in an HEK293 cell line; experiment: Umami taste enhancement activity assay (EC50 ratio vs. MSG, FLIPR); assay type: cell-based; conditions: for Ec50 ratio (vs. MSG): Table A
Protocol: A series of measurements of the dose response is run in solutions comprising MSG alone, then a second dose response is run with MSG in combination with predetermined amounts of a candidate compound of Formula (I) at the same time.
Typical compound concentrations tested were 30 μM, 10 μM, 3 μM, 1 μM, 0.3 μM, 0.1 μM and 0.03 μM. The relative efficacy of compounds of Formula (I) at enhancing the receptor was determined by calculating the magnitude of a shift in the EC50 for monosodium glutamate. Enhancement was defined as a ratio (EC50R) corresponding to the EC50 of monosodium glutamate, determined in the absence of the test compound, divided by the EC50 of monosodium glutamate, determined in the presence of the test compound.
Stated alternatively, “EC50 ratio” as compared to MSG is calculated based on the following definitions: EC50 Ratio vs. MSG=EC50 (MSG)/EC50 (MSG+[Compound]) • wherein “[compound]” refers to the concentration of the compound of Formula (I) used to elicit (or enhance or potentiate) the MSG dose response.

[3] = tested on: un-induced I-17 cells; experiment: FLIPR assay on un-induced I-17 cells (receptor dependency control); assay type: cell-based; conditions: un-induced I-17 cells (no mifepristone)
Protocol: In order to determine the dependency of hT1R1/hT1R3 for the cell response to different stimuli, selected compounds were subjected to a similar analysis on I-17 cells that had not been induced for receptor expression with mifepristone (designated as un-induced I-17 cells). […] Compounds were presented to un-induced umami cells at […]—or three times the maximum stimulation used in the dose-response analysis.

[4] = read-out: EC50 for activation of a hT1R1/hT1R3 umami receptor expressed in an HEK293 cell line
[5] = Table A, triazoles, read-out: Umami EC50

Structure (SMILES) | EC50 [1, 5] | Ec50 ratio (vs. MSG) ([2]; @ 0.3 μM compound) | other results
Cc1ccc(-c2nc(SCc3ccccn3)n[nH]2)c(C)c1 [Example 3, 2-((5-(2,4-dimethylphenyl)-1H-1,2,4-triazol-3-ylthio)methyl)pyridine] | – | – | EC50 [1, 4]: 90 nM; melting point: 112 to 114 °C; EC50 ratio (enhanced the effectiveness of monosodium glutamate) ([2]; compound present at 0.01 μM): 4.3
Cc1cc(-c2nc(SCc3ccccn3)n[nH]2)c(C)o1 [Example 7, 2-((5-(2,5-dimethylfuran-3-yl)-1H-1,2,4-triazol-3-ylthio)methyl)pyridine] | – | – | EC50 [1, 4]: 2070 nM; EC50 ratio (enhanced the effectiveness of monosodium glutamate) ([2]; compound present at 0.1 μM): 2.1
Cc1cc(-c2nc(SCCc3ccccn3)n[nH]2)oc1C [Example 8, 2-(2-(5-(4,5-dimethylfuran-2-yl)-1H-1,2,4-triazol-3-ylthio)ethyl)pyridine] | – | – | EC50 [1, 4]: 1870 nM; EC50 ratio (enhanced the effectiveness of monosodium glutamate) ([2]; compound present at 0.1 μM): 2.66
COc1ccc(Cc2nc(SCc3ccccn3)n[nH]2)c(OC)c1 [Example 9, 2-((5-(2,4-dimethoxybenzyl)-1H-1,2,4-triazol-3-ylthio)methyl)pyridine] | – | – | EC50 [1, 4]: 1200 nM; EC50 ratio (enhanced the effectiveness of monosodium glutamate) ([2]; compound present at 0.1 μM): 2.66
Cc1ccc(-c2n[nH]c(SCc3ccccn3)n2)cc1 [Example A1, 2-((5-p-tolyl-2H-1,2,4-triazol-3-ylthio)methyl)pyridine] | 170 nM | – | Ec50 ratio (vs. MSG) ([2]; @ 0.01 μM compound): 2.19
COc1cccc(-c2n[nH]c(SCc3ccccn3)n2)c1OC [Example A2, 2-((5-(2,3-dimethoxyphenyl)-2H-1,2,4-triazol-3-ylthio)methyl)pyridine] | 180 nM | – | Ec50 ratio (vs. MSG) ([2]; @ 0.01 μM compound): 1.9
COc1ccc(-c2n[nH]c(SCc3ccccn3)n2)c(C)c1 [Example A3, 2-((5-(4-methoxy-2-methylphenyl)-2H-1,2,4-triazol-3-ylthio)methyl)pyridine] | 240 nM | 2.01 | –
COc1ccc(-c2n[nH]c(SCc3ccccn3)n2)c(OC)c1 [Example A4, 2-((5-(2,4-dimethoxyphenyl)-2H-1,2,4-triazol-3-ylthio)methyl)pyridine] | 370 nM | – | Ec50 ratio (vs. MSG) ([2]; @ 0.1 μM compound): 6.22
CC(C)c1ccc(-c2n[nH]c(SCc3ccccn3)n2)cc1 [Example A5, 2-((5-(4-isopropylphenyl)-2H-1,2,4-triazol-3-ylthio)methyl)pyridine] | 420 nM | – | Ec50 ratio (vs. MSG) ([2]; @ 0.03 μM compound): 1.5
CCOc1ccc(-c2n[nH]c(SCc3ccccn3)n2)cc1 [Example A7, 2-((5-(4-ethoxyphenyl)-2H-1,2,4-triazol-3-ylthio)methyl)pyridine] | 740 nM | – | Ec50 ratio (vs. MSG) ([2]; @ 0.03 μM compound): 2.33
c1ccc(CSc2nc(-c3ccc4c(c3)OCO4)n[nH]2)nc1 [Example A10, 2-((5-(benzo[d][1,3]dioxol-5-yl)-2H-1,2,4-triazol-3-ylthio)methyl)pyridine] | 1180 nM | 6.01 | –
Cc1ccccc1-c1n[nH]c(SCc2ccccn2)n1 [Example A12, 2-((5-o-tolyl-2H-1,2,4-triazol-3-ylthio)methyl)pyridine] | 1860 nM | – | Ec50 ratio (vs. MSG) ([2]; @ 0.1 μM compound): 1.97
COc1ccccc1-c1n[nH]c(SCc2ccccn2)n1 [Example A13, 2-((5-(2-methoxyphenyl)-2H-1,2,4-triazol-3-ylthio)methyl)pyridine] | 2120 nM | 7.36 | –
Clc1cccc(-c2n[nH]c(SCc3ccccn3)n2)c1 [Example A15, 2-((5-(3-chlorophenyl)-2H-1,2,4-triazol-3-ylthio)methyl)pyridine] | 2540 nM | – | Ec50 ratio (vs. MSG) ([2]; @ 0.1 μM compound): 2
COc1cc(OC)cc(-c2n[nH]c(SCc3ccccn3)n2)c1 [Example A16, 2-((5-(3,5-dimethoxyphenyl)-2H-1,2,4-triazol-3-ylthio)methyl)pyridine] | 2580 nM | 3.16 | –
c1ccc(-c2n[nH]c(SCc3ccccn3)n2)cc1 [Example A17, 2-((5-phenyl-2H-1,2,4-triazol-3-ylthio)methyl)pyridine] | 2890 nM | 3.02 | –
COc1ccc(-c2n[nH]c(SCc3ccccn3)n2)cc1OC [Example A18, 2-((5-(3,4-dimethoxyphenyl)-2H-1,2,4-triazol-3-ylthio)methyl)pyridine] | 4080 nM | 2.13 | –
CCOc1ccccc1-c1n[nH]c(SCc2ccccn2)n1 [Example A19, 2-((5-(2-ethoxyphenyl)-2H-1,2,4-triazol-3-ylthio)methyl)pyridine] | 6490 nM | 2.01 | –
COc1cc(OC)cc(-c2n[nH]c(SCCc3ccccn3)n2)c1 [Example A20, 2-(2-(5-(3,5-dimethoxyphenyl)-2H-1,2,4-triazol-3-ylthio)ethyl)pyridine] | 7370 nM | 4.84 | –
N[C@@H](CCC(=O)O)C(=O)[O-].[Na+] [monosodium glutamate] | – | – | functional response in the FLIPR assay [3]: do not show any functional response
